The target of one assay is T1, Bovine brain tubulin (Bos taurus, UniProt P81947+Q6B856).
T1 construct: purchased Sigma, St. Louis, Mo; host or cells: bovine brain (tissue-purified)
The assay is described as follows: Tubulin turbidity assay (GTP-induced tubulin polymerization). The format is biochemical. To be noted: 1 mg/ml tubulin, 1 mM GTP, 37° C., OD 350 nm. The protocol: Bovine brain tubulin (Sigma, St. Louis, Mo.) was used in standard turbidity assays to test the effects of compounds COBRA-1 and COBRA-2 as well as control compounds on GTP-induced tubulin polymerization. Compounds (in 1% DMSO) were added to tubulin (1 mg/ml, 0.1M MES, 1 mM EGTA, 0.5 mM MgCl2, 0.1 mM EDTA, 2.5M glycerol, 1 μg/ml leupeptin, 1 μg/ml aprotinin, pH 6.5) followed by stimulation of polymerization with 1 mM GTP at 2 minutes and 1 mM taxol at 30 minutes. Optical density was measured using a Becton Dickinson UV spectrophotometer (350 nm) using a thermostated cuvette holder to keep the reaction at 37° C. Readings obtained from the spectro-photometer were standardized by subtracting the background absorbance of the compound in water from the sample reading following drug addition.
To test the latitude of the structure at the opposite end of the molecule from the long chain (head region), three new COBRA compounds were synthesized according to the schemes shown below: COBRA-3, COBRA-4, and COBRA-5. Each of these compounds was then tested for tubulin depolymerization activity, using the tubidity assay described in the Examples above.
Each of these compounds was assayed for effects on GTP-dependent tubulin polymerization, using the methods described above.

Assay [1] relates to BT-20 breast cancer cells. Nature of the assay: Cytotoxicity by confocal microscopy (tubulin immunofluorescence). The format is cell-based, human. As to the method:
(§1) Cells were incubated at 37° C. for the indicated time periods with the title compounds. At the end of the incubation, cells were washed twice with PBS and fixed in 2% paraformaldehyde. The cells were permeabilized and non-specific binding sites were blocked with 2.5% BSA in PBS containing 0.1% Triton X-100 for 30 minutes. Tubulin expression was examined by immunofluorescence using a monoclonal antibody against α-tubulin (Sigma Chemical Co, St. Louis, Mo.) at a dilution of 1:1000 and an anti-mouse IgG conjugated to FITC. Cells were washed in PBS and counterstained with toto-3 (Molecular Probes Inc., Eugene, Oreg.) for 10 minutes at a dilution of 1:1000. Cells were washed again with PBS and the coverslips were mounted with Vectashield (Vector Labs, Burlingame, Calif.) and viewed with a confocal microscope (Bio-Rad MRC 1024) mounted in a Nikon Labhophot upright microscope. Digital images were saved on a Jaz disk and processed with Adobe Photoshop software (Adobe Systems, Mountain View, Calif.).
(§2) The ultrastructural changes in human breast and glioblastoma cancer cells treated with COBRA-1 or COBRA-2 were examined by confocal microscopy and by transmission electron microscopy, using methods previously reported^19.

In a further assay the test system is U373 brain tumor cells. Described as above. In kind it is cell-based, human. The protocol:
as §1, §2

A further assay deals with MDA-MB-231. The assay is described as follows: MTT assay. In kind it is cell-based, human. The note with it: Homo sapiens, 24-36 hours. The protocol: (§3) The antiproliferative activity of […] and the control mono-THF containing compounds 8.2, 8.3, and 8.4 was examined against a panel of 5 different human tumor cell lines using standard MTT (3-[4,5-dimethylthiazol-2-yl]-2,5-diphenyl tetrazolium bromide) assays^18 (Boehringer Mannheim Corp., Indianapolis, Ind.).
(§4) Briefly, exponentially growing brain tumor cells were seeded into a 96-well plate at a density of 2.5×10^4 cells/well and incubated for 36 hours at 37° C. prior to drug exposure. On the day of treatment, culture medium was carefully aspirated from the wells and replaced with fresh medium containing the test or control compounds at concentrations ranging from 0.1 to 250 μM. Triplicate wells were used for each treatment. The cells were incubated with the various compounds for 24-36 hours at 37° C. in a humidified 5% CO2 atmosphere. To each well, 10 μl of MTT (0.5 mg/ml final concentration) was added and the plates were incubated at 37° C. for 4 hours to allow MTT to form formazan crystals by reacting with metabolically active cells . The formazan crystals were solubilized overnight at 37° C. in a solution containing 10% SDS in 0.01 M HCl. The absorbence of each well was measured in a microplate reader (Labsystems) at 540 nm and a reference wavelength of 690 nm. To translate the OD 540 values into the number of live cells in each well, the OD540 values were compared to those on standard OD540-versus-cell number curves generated for each cell line. The percent survival was calculated using the formula: % survival=Live cell number[test]×100/Live cell number[control].
(§5) IC50 values were calculated by non-linear regression analysis using an Graphpad Prism software version 2.0 (Graphpad Software, Inc., San Diego, Calif.).
(§6) The following human cancer cell lines were used in the present study: BT-20, breast cancer; MDA-MB-231, breast cancer; PC3, prostate cancer; U87 and U373, glioblastoma; NALM-6, B-lineage acute lymphoblastic leukemia. These cell lines were obtained from American Type Culture Collection (Manassas, Va.) and maintained as continuous cell lines in Dulbecco's modified Eagles's medium supplemented with 10% fetal bovine serum and antibiotics.

In another assay the test system is NALM-6. The assay is described as follows: MTT assay. To be noted: Homo sapiens, 24-36 hours. The format is cell-based, human. As to the method: as §3, §4, §5, §6
In general terms: Formazan colour is commonly taken as a measure of viable cells.

The subject of a further assay is PC-3. The assay is described as follows: MTT assay. In kind it is cell-based, human. The note with it: Homo sapiens, 24-36 hours. The protocol: as §3, §4, §5, §6
For another assay, the system named is U87. The assay is described as follows: MTT assay. The format is cell-based, human. The note with it: Homo sapiens, U-87 MG, 24-36 hours. As to the method:
as §3, §4, §5, §6

The next assay concerns SQ20B. The assay is described as follows: MTT assay. The format is cell-based, human. The note with it: Homo sapiens, 24-36 hours. The protocol:
as §3, §4, §5

The subject of assay [2] is zebrafish (ZF) (Danio rerio) embryos. Nature of the assay: Zebrafish embryo model, cell division and development. The format is in vivo. As to the method:
ZF eggs were removed from their chorions by mild digestion in 1% Trypsin-EDTA (Sigma) for 10 minutes at 28.5° C. (Standard temperature—ST), washed three times in “egg water”^15-16 and twice in “embryonic medium” (EM)^15-16. The dechorionated two-cell stage cleaving eggs/embryos were transferred to the 24-well plastic cell culture plates (Costar, City, State) filled with EM or Hank's Balanced Salt Saline (HBSS, Gibco, City, State). Dechorionated embryos (10-12 per well) were exposed to the drugs at a constant ST for 0.5-24 hours. The final volume of the media in each well was 500 μL. All reference as well as test compounds were used at concentrations ranging from 10 μM to 4 mM. The title compounds were dissolved in DMSO and then diluted serially with the incubation medium. The final concentration of DMSO in the wells was 1.2% (with the exception of the etoposide treatment where it was 3%). The sham-treated control embryos were incubated in EM or HBSS in the presence of 1.2% (or 3%) DMSO.
Observations of cell division and development of the ZF embryos were carried out using a SMZ-10A stereo microscope (Nicon, City, State), once every 30 minutes within the first 3 hours of incubation and at 6, 12 and 24 hours, as well. […] The stereo microscope was fitted with a specially designed transparent heating tray in order to keep embryos at ST during observations. Pictures of the embryos were taken with a H-III Photomicrographic System (Nicon) using Ektachrome 64X film (Kodak, Rochester, N.Y.).

One may read the IC50 as the midpoint of a concentration-inhibition curve. Read a low IC50 as greater potency.

SMILES strings stand for the structures.

T1 sequence (P81947 whole entry): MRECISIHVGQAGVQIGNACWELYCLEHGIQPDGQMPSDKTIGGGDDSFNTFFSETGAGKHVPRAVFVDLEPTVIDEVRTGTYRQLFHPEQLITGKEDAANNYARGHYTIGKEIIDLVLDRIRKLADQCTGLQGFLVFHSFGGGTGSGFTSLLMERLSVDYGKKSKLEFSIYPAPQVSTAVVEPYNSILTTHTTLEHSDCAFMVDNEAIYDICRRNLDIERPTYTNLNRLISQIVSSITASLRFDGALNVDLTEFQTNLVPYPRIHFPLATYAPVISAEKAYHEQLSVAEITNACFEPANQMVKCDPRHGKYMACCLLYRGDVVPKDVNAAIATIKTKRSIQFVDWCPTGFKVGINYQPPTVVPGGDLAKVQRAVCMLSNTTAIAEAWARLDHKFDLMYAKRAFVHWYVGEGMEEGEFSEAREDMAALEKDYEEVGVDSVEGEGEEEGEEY
T1 sequence (Q6B856 whole entry): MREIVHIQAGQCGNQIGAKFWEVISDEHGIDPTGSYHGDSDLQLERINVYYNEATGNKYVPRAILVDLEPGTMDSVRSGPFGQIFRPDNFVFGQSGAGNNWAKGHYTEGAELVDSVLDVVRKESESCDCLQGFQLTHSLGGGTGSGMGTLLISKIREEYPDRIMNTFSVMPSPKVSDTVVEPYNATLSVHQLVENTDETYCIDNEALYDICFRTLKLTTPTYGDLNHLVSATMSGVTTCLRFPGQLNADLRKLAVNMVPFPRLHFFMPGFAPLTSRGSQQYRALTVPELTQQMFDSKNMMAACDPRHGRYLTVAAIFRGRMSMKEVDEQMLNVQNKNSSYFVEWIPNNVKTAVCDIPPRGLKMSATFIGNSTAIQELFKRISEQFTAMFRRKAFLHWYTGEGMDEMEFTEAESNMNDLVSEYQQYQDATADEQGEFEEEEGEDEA

With `C=CCC[C@H](O)[C@H]1CC[C@H]([C@H](O)CCCCCCCCCCCC)O1` [COBRA-2], the “effect on GTP-dependent tubulin polymerization (turbidity)” value on Bovine brain tubulin is “caused partial depolymerization of tubulin and inhibited its polymerization in the presence of GTP”. For the same molecule, the “cell morphology / microtubules” value was “cell death with nuclear fragmentation and complete loss of microtubule formation” in assay [1] (BT-20, 100-200 μM); “the cells shrink and the microtubules become less organized” in assay [1] (BT-20, 24 hours (FIG. 10B)); “cell death with nuclear fragmentation and complete loss of microtubule formation” in the assay with U373 brain tumor cells (U373, 100-200 μM); “the cells shrink and the microtubules become less organized” in the assay on U373 brain tumor cells (U373, 24 hours (FIG. 10E)).
On to `CCCCCCCCCCCC[C@@H](O)[C@H]1CC[C@H]([C@@H](O)CO)O1` [COBRA-4], for which the “effect on GTP-dependent tubulin polymerization (turbidity)” value on Bovine brain tubulin is “caused partial depolymerization of tubulin and completely inhibited its polymerization in the presence of GTP”.
Take `OC(CSOOc1ccccc1)C1CCC(COCc2ccccc2)O1` (centres unmarked) [Compound 8.2]: the IC50 with MDA-MB-231, with NALM-6, with PC-3, in the assay with U87 and in the assay with SQ20B was more than 250 µM in each case.
As to `C[C@@H](O)[C@H]1CC[C@H](CO)O1` [Compound 8.3], the IC50 in the assay with MDA-MB-231, with NALM-6, with PC-3, in the assay on U87 and in the assay with SQ20B was more than 250 µM each time.
Turning to `OCC(O)[C@H]1CC[C@H](CO)O1` (some centres unmarked) [Compound 8.4], the IC50 in the assay with MDA-MB-231, in the assay on NALM-6, in the assay on PC-3, in the assay with U87 and in the assay with SQ20B was more than 250 µM each time.
In the case of `CN(Cc1cnc2nc(N)nc(N)c2n1)c1ccc(C(=O)N[C@@H](CCC(=O)O)C(=O)O)cc1` [methotrexate, reference compound], the effect on gastrulation result in assay [2] (1-4 mM) is reported as “failed to gastrulate”. Besides, in assay [2] (by 4 hours of incubation), the “effect on cell division during cleavage and blastula stages” value is on record as “no visible effect”.
Regarding `CC(=O)O[C@H]1C(=O)[C@@]2(C)[C@H]([C@H](OC(=O)c3ccccc3)[C@]3(O)C[C@H](OC(=O)[C@H](O)[C@@H](NC(=O)c4ccccc4)c4ccccc4)C(C)=C1C3(C)C)[C@]1(OC(C)=O)CO[C@@H]1C[C@@H]2O` [paclitaxel, reference compound], the “effect on ZF embryos” value in assay [2] (400 μM in EM) is on record as “developmental abnormalities after 90 minutes of exposure”.
Take `CC[C@]1(O)C[C@H]2CN(CCc3c([nH]c4ccccc34)[C@@](C(=O)OC)(c3cc4c(cc3OC)N(C=O)[C@H]3[C@@](O)(C(=O)OC)[C@H](OC(C)=O)[C@]5(CC)C=CCN6CC[C@]43[C@@H]65)C2)C1` [vincristine, reference compound]: in [2] (100 μM in EM or HBSS), the “effect on ZF embryos” value is “rapid total cell division blockade, cell fusion and developmental arrest”; the “time until two-cell stage embryos stopped cleaving” value was not above 15 min.

The record behind these values is US20020045764A1, “Tubulin binding compounds (COBRA)” (Parker Hughes Institute, priority 1998, published 2002).
